Data set [1] in a line: Dissolution of crystalline lovastatin and lovastatin adsorbate in 0.02M hydrochloric acid. The data set is classed as physicochemical. The procedure:
0.2 g of lovastatin was dissolved in a mixture of 10 ml trichloromethane and 40 ml diisopropyl ether. 2 g of a the SYLOID® AL1 was added to the solution. Subsequently the solvent was removed by evaporation.

The nature of data set [2]: Dissolution of crystalline simvastatin and simvastatin adsorbate in 0.02M hydrochloric acid. The class given is physicochemical. The procedure:
0.2 g of simvastatin was dissolved in 50 ml of dichloromethane. 2 g of a the SYLOID® AL1 was added to the solution. Subsequently the solvent was removed by evaporation. The sample was analysed using X-ray powder diffraction (XRPD). Using XRPD it was confirmed that the API in the product was amorphous. The use of dichloromethane as the solvent for simvastatin and SYLOID® AL1 as the carrier gives the adsorbate according to the invention.

For data set [3] the following is noted: crystalline solid; term defined as less or equal to 0.1 mg/ml; cited from earlier work.
Data set [4] is described as follows: Dissolution of crystalline tadalafil, tadalafil adsorbate and precipitates on carriers. The conditions noted are these: 20 mM phosphate buffer pH 6.9. The class given is physicochemical. The procedure:
The carriers comprising tadalafil have been prepared as described in example 1.
0.1 g of tadalafil was dissolved in 20 ml of dichloromethane. 5 ml of the resulting solution was added to 0.25 g of a solid support (Aerosil® 380, Al2O3, MgO, TiO2). Subsequently the solvent was removed by evaporation.

Take `CC[C@H](C)C(=O)O[C@H]1C[C@@H](C)C=C2C=C[C@H](C)[C@H](CC[C@@H]3C[C@@H](O)CC(=O)O3)[C@H]21` [Crystalline lovastatin, lovastatin]: the Amount dissolved in data set [1] (2 min) is 0.298 µg/mL; in data set [1] (5 min), 0.403 µg/mL; in data set [1] (10 min), 0.418 µg/mL; in data set [1] (15 min) it was 0.501 µg/mL; in data set [1] (25 min) it was 0.625 µg/mL; in data set [1] (40 min), 0.523 µg/mL. In addition, the Amount dissolved in data set [1] (60 min) was determined as 0.62 µg/mL; in data set [2] (2 min) it was 0.848 µg/mL; in data set [2] (5 min) it was 1.667 µg/mL; in data set [2] (10 min) it was 1.853 µg/mL; in data set [2] (15 min), 1.859 µg/mL; in data set [2] (25 min), 2.031 µg/mL. For the same molecule, the values for the Amount dissolved in data set [2] (40 min) and in data set [2] (60 min) were 2.145 µg/mL and 2.175 µg/mL, respectively.

Turning to `CN1CC(=O)N2[C@H](c3ccc4c(c3)OCO4)c3[nH]c4ccccc4c3C[C@@H]2C1=O` [Crystalline tadalafil, (6R,12aR)-6-(1,3-Benzodioxol-5-yl)-2,3,6,7,12,12a-hexahydro-2-methyl-pyrazino[1′,2′:1,6]pyrido[3,4-b]indole-1,4-dione], in data set [3], the solubility in water entry is given as “practically insoluble in water”. Also, the Amount dissolved in data set [4] (2 min) worked out at 2.9 µg/mL; in data set [4] (5 min), 14.6 µg/mL; in data set [4] (10 min), 24.2 µg/mL; in data set [4] (15 min), 27.0 µg/mL; in data set [4] (25 min), 32.9 µg/mL; in data set [4] (40 min), 34.4 µg/mL.

(Values after patent US20120088774A1, “ACTIVE PHARMACEUTICAL INGREDIENT ADSORBED ON SOLID SUPPORT” (LEK PHARMACEUTICALS D.D., priority 2009, published 2012).)
